Test results reported in ChEMBL document CHEMBL5303765, “Data for DCP probe BAY-7081” (2023).

Key:
Conditions in all cases: for ΔTm: Compound concentration 10.0 uM
[1] = molecular target: Casein kinase I isoform delta (Homo sapiens) (UniProt P48730); experiment: CSNK1D SGC Tm panel (DSF)
[2] = molecular target: RAC-gamma serine/threonine-protein kinase (Homo sapiens) (UniProt Q9Y243); experiment: AKT3 SGC Tm panel (DSF)
[3] = molecular target: T1, Aurora kinase A (Homo sapiens) (UniProt O14965); experiment: STK6 SGC Tm panel (DSF)
T1 sequence (whole entry): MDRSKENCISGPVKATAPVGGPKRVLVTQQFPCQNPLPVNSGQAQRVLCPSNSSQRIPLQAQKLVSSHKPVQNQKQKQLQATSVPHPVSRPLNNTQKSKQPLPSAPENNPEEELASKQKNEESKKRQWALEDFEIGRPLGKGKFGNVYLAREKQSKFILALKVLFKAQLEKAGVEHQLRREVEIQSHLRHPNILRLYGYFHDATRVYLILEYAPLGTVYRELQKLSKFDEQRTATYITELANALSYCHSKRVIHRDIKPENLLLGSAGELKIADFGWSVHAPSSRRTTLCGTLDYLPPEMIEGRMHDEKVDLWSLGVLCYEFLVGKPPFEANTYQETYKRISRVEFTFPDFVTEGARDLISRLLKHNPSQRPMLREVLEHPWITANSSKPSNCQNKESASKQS

[4] = molecular target: Maternal embryonic leucine zipper kinase (Homo sapiens) (UniProt Q14680); experiment: MELK SGC Tm panel (DSF)
Chain of Maternal embryonic leucine zipper kinase (Homo sapiens) (Q14680 whole entry, looked up): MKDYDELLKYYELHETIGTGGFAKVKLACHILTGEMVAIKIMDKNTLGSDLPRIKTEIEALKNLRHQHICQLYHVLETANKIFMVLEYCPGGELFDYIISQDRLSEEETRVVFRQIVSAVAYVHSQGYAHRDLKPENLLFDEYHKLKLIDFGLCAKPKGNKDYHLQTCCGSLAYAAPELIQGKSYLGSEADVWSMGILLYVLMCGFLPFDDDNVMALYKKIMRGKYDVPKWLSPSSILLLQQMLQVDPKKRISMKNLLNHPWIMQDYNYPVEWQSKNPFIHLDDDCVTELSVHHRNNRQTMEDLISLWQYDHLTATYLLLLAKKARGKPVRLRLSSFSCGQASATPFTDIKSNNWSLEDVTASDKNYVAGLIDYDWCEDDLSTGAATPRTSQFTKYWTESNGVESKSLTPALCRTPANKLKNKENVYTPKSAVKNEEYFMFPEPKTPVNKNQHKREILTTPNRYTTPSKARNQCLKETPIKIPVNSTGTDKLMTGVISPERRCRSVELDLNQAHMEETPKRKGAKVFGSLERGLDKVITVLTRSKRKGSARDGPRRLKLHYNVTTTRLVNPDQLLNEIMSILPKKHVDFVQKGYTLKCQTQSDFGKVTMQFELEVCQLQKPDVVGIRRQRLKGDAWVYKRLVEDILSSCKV

[5] = molecular target: Dual specificity protein kinase CLK1 (Homo sapiens) (UniProt P49759); experiment: CLK1 SGC Tm panel (DSF)
Chain of Dual specificity protein kinase CLK1 (Homo sapiens) (P49759 whole entry, looked up): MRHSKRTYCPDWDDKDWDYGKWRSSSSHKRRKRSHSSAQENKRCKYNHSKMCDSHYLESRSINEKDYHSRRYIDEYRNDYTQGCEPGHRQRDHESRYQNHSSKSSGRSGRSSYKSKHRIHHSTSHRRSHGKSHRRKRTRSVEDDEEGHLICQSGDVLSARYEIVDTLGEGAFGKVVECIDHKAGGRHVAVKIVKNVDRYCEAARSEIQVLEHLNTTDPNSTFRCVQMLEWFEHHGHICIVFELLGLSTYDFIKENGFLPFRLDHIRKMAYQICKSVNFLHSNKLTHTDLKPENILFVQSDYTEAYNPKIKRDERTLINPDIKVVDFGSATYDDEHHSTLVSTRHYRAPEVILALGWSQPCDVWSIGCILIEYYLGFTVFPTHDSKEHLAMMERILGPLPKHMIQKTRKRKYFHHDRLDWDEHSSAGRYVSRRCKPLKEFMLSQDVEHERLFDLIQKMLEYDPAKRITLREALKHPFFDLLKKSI

[6] = molecular target: T2, Serine/threonine-protein kinase PLK4 (Homo sapiens) (UniProt O00444); experiment: PLK4 SGC Tm panel (DSF)
T2 sequence (whole entry): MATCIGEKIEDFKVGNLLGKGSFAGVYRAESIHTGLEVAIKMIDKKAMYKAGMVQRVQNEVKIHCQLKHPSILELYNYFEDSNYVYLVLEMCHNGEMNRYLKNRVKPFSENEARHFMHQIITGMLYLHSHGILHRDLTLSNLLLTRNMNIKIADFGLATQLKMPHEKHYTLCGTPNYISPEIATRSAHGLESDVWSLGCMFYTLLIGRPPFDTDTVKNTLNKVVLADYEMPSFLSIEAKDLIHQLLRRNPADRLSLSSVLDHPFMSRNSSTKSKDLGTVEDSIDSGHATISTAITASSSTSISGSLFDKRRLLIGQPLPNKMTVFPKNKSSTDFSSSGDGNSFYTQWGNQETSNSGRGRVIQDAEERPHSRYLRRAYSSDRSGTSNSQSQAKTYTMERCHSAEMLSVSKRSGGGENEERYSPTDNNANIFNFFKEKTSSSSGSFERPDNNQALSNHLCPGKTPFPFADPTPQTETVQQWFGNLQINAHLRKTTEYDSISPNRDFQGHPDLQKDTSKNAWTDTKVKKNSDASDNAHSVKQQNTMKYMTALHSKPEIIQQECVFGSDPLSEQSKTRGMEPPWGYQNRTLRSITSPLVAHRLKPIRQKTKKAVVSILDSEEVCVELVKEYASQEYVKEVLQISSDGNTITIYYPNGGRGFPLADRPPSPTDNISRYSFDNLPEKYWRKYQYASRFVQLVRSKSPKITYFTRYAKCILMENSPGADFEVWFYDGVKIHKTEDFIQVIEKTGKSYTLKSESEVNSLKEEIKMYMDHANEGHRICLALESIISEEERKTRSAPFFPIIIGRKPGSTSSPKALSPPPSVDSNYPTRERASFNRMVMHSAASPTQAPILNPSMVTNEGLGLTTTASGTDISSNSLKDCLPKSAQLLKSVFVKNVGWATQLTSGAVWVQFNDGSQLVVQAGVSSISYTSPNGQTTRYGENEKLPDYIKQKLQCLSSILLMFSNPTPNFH

[7] = molecular target: Bromodomain-containing protein 4 (Homo sapiens) (UniProt O60885); experiment: BRD4 SGC Tm panel (DSF)
[8] = molecular target: MAP/microtubule affinity-regulating kinase 3 (Homo sapiens) (UniProt P27448); experiment: MARK3 SGC Tm panel (DSF)
Chain of MAP/microtubule affinity-regulating kinase 3 (Homo sapiens) (P27448 whole entry, looked up): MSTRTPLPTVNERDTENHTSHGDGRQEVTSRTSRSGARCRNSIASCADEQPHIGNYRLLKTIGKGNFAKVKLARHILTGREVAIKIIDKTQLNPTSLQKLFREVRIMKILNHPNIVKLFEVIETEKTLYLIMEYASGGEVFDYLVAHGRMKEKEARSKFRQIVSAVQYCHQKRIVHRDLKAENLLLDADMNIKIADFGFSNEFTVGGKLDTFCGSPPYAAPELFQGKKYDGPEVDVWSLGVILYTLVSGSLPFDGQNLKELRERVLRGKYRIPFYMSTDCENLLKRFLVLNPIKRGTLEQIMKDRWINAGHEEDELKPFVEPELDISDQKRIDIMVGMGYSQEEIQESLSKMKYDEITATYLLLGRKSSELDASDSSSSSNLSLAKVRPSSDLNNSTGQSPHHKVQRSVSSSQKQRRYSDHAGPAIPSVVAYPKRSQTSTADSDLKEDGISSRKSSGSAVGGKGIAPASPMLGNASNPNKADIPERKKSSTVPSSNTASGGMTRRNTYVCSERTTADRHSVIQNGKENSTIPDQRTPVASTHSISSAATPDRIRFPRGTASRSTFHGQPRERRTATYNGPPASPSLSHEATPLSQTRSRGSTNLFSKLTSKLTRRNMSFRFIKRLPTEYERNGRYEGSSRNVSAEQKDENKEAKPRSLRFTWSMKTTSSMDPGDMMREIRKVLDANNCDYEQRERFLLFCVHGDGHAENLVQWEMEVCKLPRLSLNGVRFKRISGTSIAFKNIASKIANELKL

[9] = molecular target: Serine/threonine-protein kinase PAK 4 (Homo sapiens) (UniProt O96013); experiment: PAK4 SGC Tm panel (DSF)
Chain of Serine/threonine-protein kinase PAK 4 (Homo sapiens) (O96013 whole entry, looked up): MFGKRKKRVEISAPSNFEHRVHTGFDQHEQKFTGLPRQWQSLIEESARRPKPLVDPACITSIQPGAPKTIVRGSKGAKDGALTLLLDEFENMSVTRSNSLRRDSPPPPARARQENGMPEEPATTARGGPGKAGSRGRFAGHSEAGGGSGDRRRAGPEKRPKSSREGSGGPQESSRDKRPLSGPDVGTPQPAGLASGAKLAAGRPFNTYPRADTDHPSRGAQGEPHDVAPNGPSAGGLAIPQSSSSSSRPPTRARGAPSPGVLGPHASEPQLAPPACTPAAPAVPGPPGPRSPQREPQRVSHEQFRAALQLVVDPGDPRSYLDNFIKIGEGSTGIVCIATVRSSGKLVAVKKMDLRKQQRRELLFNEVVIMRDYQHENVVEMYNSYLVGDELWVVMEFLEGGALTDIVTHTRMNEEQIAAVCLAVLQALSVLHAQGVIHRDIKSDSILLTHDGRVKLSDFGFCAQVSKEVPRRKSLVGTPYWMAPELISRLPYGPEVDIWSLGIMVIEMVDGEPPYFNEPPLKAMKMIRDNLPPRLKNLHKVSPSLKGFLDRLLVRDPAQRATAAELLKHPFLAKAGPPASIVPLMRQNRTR

Chain of Casein kinase I isoform delta (Homo sapiens) (P48730 whole entry, looked up, canonical isoform): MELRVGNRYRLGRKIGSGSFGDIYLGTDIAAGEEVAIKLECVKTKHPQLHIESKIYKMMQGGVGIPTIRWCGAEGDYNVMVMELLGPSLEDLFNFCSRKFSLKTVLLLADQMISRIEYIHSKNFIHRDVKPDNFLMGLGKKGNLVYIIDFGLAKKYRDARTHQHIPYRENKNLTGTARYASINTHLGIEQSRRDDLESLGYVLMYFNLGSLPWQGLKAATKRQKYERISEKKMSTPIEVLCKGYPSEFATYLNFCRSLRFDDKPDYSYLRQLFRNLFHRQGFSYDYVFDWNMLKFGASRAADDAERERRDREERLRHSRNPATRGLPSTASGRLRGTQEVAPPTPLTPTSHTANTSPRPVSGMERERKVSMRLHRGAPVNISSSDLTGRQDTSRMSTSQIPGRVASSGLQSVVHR
Chain of RAC-gamma serine/threonine-protein kinase (Homo sapiens) (Q9Y243 whole entry): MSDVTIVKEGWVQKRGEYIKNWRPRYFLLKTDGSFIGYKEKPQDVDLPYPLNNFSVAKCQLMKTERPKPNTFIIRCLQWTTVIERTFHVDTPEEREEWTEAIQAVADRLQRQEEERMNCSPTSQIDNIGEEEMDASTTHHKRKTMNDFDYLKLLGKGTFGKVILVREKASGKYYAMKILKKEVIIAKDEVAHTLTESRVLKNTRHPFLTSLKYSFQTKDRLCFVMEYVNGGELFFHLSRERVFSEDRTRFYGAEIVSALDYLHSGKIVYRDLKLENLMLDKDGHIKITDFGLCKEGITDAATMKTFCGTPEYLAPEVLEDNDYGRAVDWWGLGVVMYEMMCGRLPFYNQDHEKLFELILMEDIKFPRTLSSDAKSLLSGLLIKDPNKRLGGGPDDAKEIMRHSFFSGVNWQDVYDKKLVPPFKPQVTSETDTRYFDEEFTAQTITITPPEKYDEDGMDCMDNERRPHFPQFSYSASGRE

`CCC[C@@H]1CNCc2c1[nH]c(=O)c(C#N)c2N1CCC2(CC1)CC2` was tested. Which delta Tm Staurosporine positive control [1] did it give?
The delta Tm Staurosporine positive control was 2.05.

What about the ΔTm [1] of the same compound?
The ΔTm was 0.052.

And the delta Tm Staurosporine positive control [2]?
The delta Tm Staurosporine positive control was 7.15.

What about the ΔTm [2] of the same compound?
Its ΔTm is -0.39.

And the delta Tm Staurosporine positive control [3]?
Its delta Tm Staurosporine positive control is 20.5.

What about the ΔTm [3] of the same compound?
The ΔTm was -0.0175.

What about the delta Tm Staurosporine positive control [4] of the same compound?
The delta Tm Staurosporine positive control was 14.2.

And the ΔTm [4]?
Its ΔTm is 0.193.

What about the delta Tm Staurosporine positive control [5] of the same compound?
Its delta Tm Staurosporine positive control is 11.4.

And the ΔTm [5]?
Its ΔTm is -0.372.

And the delta Tm Staurosporine positive control [6]?
Its delta Tm Staurosporine positive control is 19.7.

And the ΔTm [6]?
The ΔTm was -0.315.

And the delta Tm Staurosporine positive control [7]?
The delta Tm Staurosporine positive control was 2.04.

What about the ΔTm [7] of the same compound?
Its ΔTm is 0.857.

And the delta Tm Staurosporine positive control [8]?
The delta Tm Staurosporine positive control was 17.5.

And the ΔTm [8]?
The ΔTm was -0.214.

And the delta Tm Staurosporine positive control [9]?
The delta Tm Staurosporine positive control was 15.1.

What about the ΔTm [9] of the same compound?
The ΔTm was 0.121.

Which results are given for `CCC[C@H]1CNCc2c1[nH]c(=O)c(C#N)c2N1CCC2(CC1)CC2`?
delta Tm Staurosporine positive control [1]: 2.05; ΔTm [1]: -0.142; delta Tm Staurosporine positive control [2]: 7.15; ΔTm [2]: -0.443; delta Tm Staurosporine positive control [3]: 20.5; ΔTm [3]: 0.00646; delta Tm Staurosporine positive control [4]: 14.2; ΔTm [4]: -0.201; delta Tm Staurosporine positive control [5]: 11.4; ΔTm [5]: -0.548; delta Tm Staurosporine positive control [6]: 19.7; ΔTm [6]: -0.34; delta Tm Staurosporine positive control [7]: 2.04; ΔTm [7]: 0.19; delta Tm Staurosporine positive control [8]: 17.5; ΔTm [8]: -0.331; delta Tm Staurosporine positive control [9]: 15.1; ΔTm [9]: 0.134
